Reference: article PMC10525445, “Antitrypanosomal Activity of 1,2,3-Triazole-Based Hybrids Evaluated Using In Vitro Preclinical Translational Models” (Biology, 2023)
Entries after “also recorded” stand apart in the source; their conditions may differ. Read-outs that look alike come from different tables or passages of the source.

How the values were obtained:
Assay type in all cases: cell-based, Trypanosoma cruzi
[1] = test system: trypomastigote forms of T. cruzi (Dm28c-Luc); assay: Trypanocidal activity against trypomastigotes (luciferase luminescence, 24 h); conditions: for Trypomastigotes SI: SI = CC50 of VERO cells/IC50 of trypomastigotes; for increase of activity compared with 1g (times): trypomastigotes
Procedure: (§1) A drug screen was carried out with Trypanosoma cruzi clone Dm28c genetically modified to express luciferase (Dm28c-luc), kindly provided by Dr. Cristina Henriques. The genetically modified T. cruzi clone Dm28c (Dm28c-Luc) has the firefly luciferase gene integrated into the genome, stably expressing the luminescent enzyme. The bioluminescent signal, proportional to the number of parasites, is produced by adding a D-luciferin substrate. Trypomastigotes were harvested from supernatants of VERO cell cultures, infected at a ratio of 10:1 parasite/host cells, 4 days post-infection (4 dpi). Parasites were used for phenotypic drug screening procedures. Luminescent parasites are a reliable and sensitive tool that allows precise quantification of parasite load. The use of genetically modified organisms was approved under license CQB 105/99.
All triazole analogs were analyzed for their biological activity against trypomastigote and intracellular amastigote forms of T. cruzi (Dm28c-Luc). Trypomastigotes (1.0 × 10^6 parasites/well) were incubated for 24 h at 37 °C with triazole derivatives and Bz at concentrations ranging from 0.04 to 100 µM. Luciferin (300 µg/mL), a luciferase substrate, was added to parasite suspensions to evaluate trypomastigotes viability. The luminescent signal was measured using a Glomax microplate reader. A maximal DMSO concentration (0.1%) was used as the negative control. The inhibitory concentration 50 (IC50) and 90 (IC90) against T. cruzi, which reduces the number of parasites by 50% and 90%, respectively, was calculated using linear regression. The selectivity index (SI), a ratio that measures the window between toxicity in mammalian cells and anti-T. cruzi activity (SI = CC50/IC50), was also determined.

[2] = test system: intracellular amastigote forms of T. cruzi (Dm28c-Luc); assay: Activity against intracellular amastigotes in infected VERO cells (72 h); conditions: for Intracellular Amastigotes SI: SI = CC50 of VERO cells/IC50 of intracellular amastigotes; for IC50 / IC90: infected VERO cells, 72 h, mean ± SD; for IC50: read-out: Trypanocidal Activity Intracellular Amastigotes IC50; for IC90: read-out: Trypanocidal Activity Intracellular Amastigotes IC90
Procedure: as §1
Activity against intracellular amastigotes was determined in cultures of VERO cells infected by T. cruzi (24 h), as previously described. Briefly, infected cultures were treated for 72 h at 37 °C with different concentrations of triazole derivatives (0.04–100 µM). Then, the culture supernatant was removed, and the viability of the intracellular parasites was evaluated after adding luciferin (300 µg/mL) to the cell monolayer followed by reading using the microplate reader. Anti-T. cruzi activity (IC50 and IC90) and SI values were determined. All experimental assays were performed at least 3 times in duplicate.

[3] = test system: T. cruzi Dm28c-Luc in 3D cardiac spheroids; assay: Drug efficacy in T. cruzi-infected 3D cardiac spheroids; conditions: 72 h, 15 to 30 times the IC50, 1f maximum 50 µM
Procedure: Primary heart muscle cell cultures were obtained from fetuses of female Swiss Webster mice, as previously described. After heart removal and ventricle fragmentation, tissue fragments were dissociated in a trypsin and collagenase type II (Worthington Biochemical Corporation, Lakewood, USA) dissociation solution. For two-dimensional (2D) cultures, the isolated cardiac cells were seeded at a density of 5 × 10^4 cells/well in gelatin (0.1%)-coated 96-well white culture plates. Three-dimensional (3D) cardiac spheroids were obtained after seeding isolated heart muscle cells at a density of 2.5 × 10^4 cells/well in an agarose (1%)-coated 96-well U-bottom plate, as described in [35]. Heart muscle cells cultures were cultivated in Dulbecco’s modified Eagle medium (DMEM) supplemented with 7% FBS, 2.5 mM CaCl2, 2% embryo extract, and 1 mM L-glutamin and maintained at 37 °C in a humidified atmosphere of 5% CO2. All procedures with animals were approved by the Animal Care and Use Committee at the Oswaldo Cruz Institute (license L-017/2022).
A three-dimensional cardiac model was applied as a cell culture platform to test the efficacy of promising candidates. […] Microtissues were also incubated with DMSO (0.1%) and Bz (100 µM) as negative and positive controls, respectively. After luciferin addition (300 µg/mL), the luminescence was measured, and the data were expressed as arbitrary luminescence units (ALU).

[4] = test system: T. cruzi (Dm28c-Luc)-infected VERO cells; assay: Short-term washout assay (3 days treatment, 3 days without compound)
Procedure: A washout assay was performed to evaluate the capacity of the promising candidates to eliminate all parasites. Thus, VERO cells, seeded in 96-well plates at a density of 1.5 × 10^4 cells/well, were infected with T. cruzi (Dm28c-Luc) at a 10:1 parasite–host cell ratio (24 h). Two treatment schedules were performed: 3 days with 30, 50, and 100 µM concentrations and 10 days with 30 and 60 times the IC50 concentrations. After treatment, the cultures were washed with PBS and kept for the same period in RPMI 1640 medium supplemented with 10% FBS without compound pressure. The culture medium was changed every 3 or 4 days during the time course, and the supernatant was harvested for luminescence reading after luciferin (300 µg/mL) addition. At the endpoint, the monolayers were also evaluated for parasite load. The luminescent signal was read using a Glomax reader. Bz (100 µM) and DMSO (≤1%) were used as positive and negative controls, respectively.

[5] = test system: intracellular amastigote of T. cruzi Dm28c-Luc; assay: Drug combination assay with Bz (isobologram); conditions: for xΣFICI (average of the sums of fractional inhibitory concentration index): combination with Bz, six ratios, additive xΣFICI > 0.5–1; for interaction with Bz: isobologram, intracellular amastigote
Procedure: The combination of promising candidates and Bz was performed using an isobologram method. Initial concentrations were determined by ensuring that IC50 concentrations of monotherapy compounds remained close to half in serial dilutions (1:3–6 concentrations). Solutions at the initial concentration of each compound were prepared and then mixed in proportions of 5:0, 4:1, 3:2, 2:3, 1:4, and 0:5 (v/v) of promising compounds and Bz, respectively. The anti-T. cruzi activity for the serial dilutions (1:3) of the ratios was then analyzed, as previously described. The IC50 values for each combination were used to determine the fractional inhibitory concentration index (FICI); thus, FICI(A) = IC50(A) in combination/IC50(A) alone and FICI(B) = IC50(B) in combination/IC50(B) alone. In addition, the sum of the FICIs for each proportion (∑FICI = FICI(A) + FICI(B)) and the average of the sums for the FICIs (xΣFICI) were calculated. The FICI values were plotted on an isobologram graph. The xΣFICI was applied as a classification criterion for interactions: as synergistic xΣFICI ≤ 0.5, additive xΣFICI > 0.5–1, without interaction xΣFICI > 1–4, and antagonistic for xΣFICI > 4.

[6] = Trypanosoma cruzi, Dm28c-Luc, 24 h, mean ± SD
[7] = Trypanosoma cruzi, Dm28c-Luc, 24 h, mean ± SD, read-out: Trypanocidal Activity Trypomastigotes IC50
[8] = Trypanosoma cruzi, Dm28c-Luc, 24 h, read-out: pIC50 against trypomastigotes (converted)

Row | Compound | Trypomastigotes SI [1] | IC90 [1, 6] [µM] | IC50 [1, 7] [µM] | IC50 [1, 8] [µM] | Intracellular Amastigotes SI [2] | IC50 ([2]; Trypanosoma cruzi) [µM] | IC90 ([2]; Trypanosoma cruzi) [µM] | parasite load in 3D cardiac microtissue (luminescence) [3] | xΣFICI (average of the sums of fractional inhibitory concentration index) [5] | interaction with Bz [5] | increase of activity compared with 1g (times) [1] [times] | further results
1 | c1ccc(-c2cn(-c3ccccc3)nn2)cc1 [Triazole 1g, 1-(4-Diphenyl)-1H-1,2,3-triazole] | >219 | > 100 | 2.28 ± 0.34 | 2.29 | >80.6 | 6.2 ± 1.06 | > 100 | did not effectively decrease the total number of viable intracellular parasites | 0.90 | additive effect |  | effect on parasite load / infection progression ([4]; 100 µM): did not significantly reduce the parasite load
2 | 4-Phenyl-1-(m-tolyl)-1H-1,2,3-triazole [Triazole 1f] | 70.5 |  |  |  | 24.8 |  |  | significantly inhibited the viability of the parasites; also recorded: significantly reduce the parasite load | 0.88 | additive effect | 1.8 | pIC50 against trypomastigotes ([1]; Dm28c-Luc, 24 h): 5.91; IC90 ([1]; Dm28c-Luc, 24 h, mean ± SD): 3.68 ± 0.6 µM; IC50 ([1]; Dm28c-Luc, 24 h, mean ± SD, read-out: Trypanocidal Activity Trypomastigotes IC50): 1.23 ± 0.24 µM; IC50 [2]: 3.5 ± 0.39 µM; IC90 [2]: 30.4 ± 0.4 µM; effect on parasite load ([4]; 30 µM): did not significantly reduce the parasite load; fold reduction in parasite load compared to untreated cultures ([4]; 50 µM): ~12 fold; parasite resurgence ([4]; 50 µM): did not prevent parasite resurgence
3 | COc1ccc(-n2cc(-c3ccccc3)nn2)cc1 [Triazole 1d, 1-(4-Methoxyphenyl)-4-phenyl-1H-1,2,3-triazole] | >2380 | 2.9 ± 0.16 | 0.21 ± 0.03 | 0.214 | >152 | 3.27 ± 0.9 | > 100 | significantly inhibited the viability of the parasites; also recorded: significantly reduce the parasite load | 0.93 | additive effect | 11 | fold reduction in parasite load compared to untreated cultures ([4]; 100 µM): approximately 10 fold; parasite resurgence ([4]; 100 µM): did not prevent parasite resurgence
